Data reported in ChEMBL document CHEMBL1157976, “Iridoid constituents of Tarenna attenuata” (J Nat Prod, 2006).
Activity calls are given as the source filed them. The calls are words filed in the database; no cut-off is given here.

Columns and labels:
PC-12 [1] = test: Cytotoxicity against rat PC12 cells at 0.4 to 50 uM; format: functional, cell-based
PC-12 [2] = test: Antioxidant activity against H2O2-induced impairment of rat PC12 cells apoptosis at 0.4 to 50 uM; format: functional, cell-based

Q: What does the source list for O=C(O)C1=CC[C@@H]2C(C(=O)O)=CO[C@@H](O[C@@H]3O[C@H](COC(=O)c4ccccc4)[C@@H](O)[C@H](O)[C@H]3O)[C@H]12?
A: Activity (PC-12 [1]): inactive; Activity (PC-12 [2]): inactive

Q: Which Activity (PC-12 [1]) does the source give for COc1cc(/C=C/C(=O)O[C@H]2[C@H](O)[C@@H](O)[C@H](O[C@@H]3OC=C(C(=O)O)[C@H]4CC=C(C(=O)O)[C@@H]34)O[C@@H]2CO)ccc1O here?
A: inactive

Q: And the Activity (PC-12 [2])?
A: inactive

Q: How did the Activity (PC-12 [1]) turn out when COc1cc(C(=O)O[C@@H]2[C@@H](O)[C@H](O[C@@H]3OC=C(C(=O)O)[C@H]4CC=C(C(=O)O)[C@@H]34)O[C@H](CO)[C@H]2O)ccc1O was run?
A: inactive

Q: What about the Activity (PC-12 [2]) of the same compound?
A: inactive

Q: Which results are given for COc1cc(C(=O)OC[C@H]2O[C@@H](O[C@@H]3OC=C(C(=O)O)[C@H]4CC=C(C(=O)O)[C@@H]34)[C@H](O)[C@@H](O)[C@@H]2O)cc(OC)c1O?
A: Activity (PC-12 [1]): inactive; Activity (PC-12 [2]): inactive

Q: Which Activity (PC-12 [1]) does the source give for COC(=O)C1=CC[C@@H]2C(C(=O)O)=CO[C@@H](O[C@@H]3O[C@H](CO)[C@@H](O)[C@H](O)[C@H]3O)[C@H]12 here?
A: inactive

Q: What about the Activity (PC-12 [2]) of the same compound?
A: inactive

Q: What does the source list for COc1cc(C(=O)OC[C@H]2O[C@@H](O[C@@H]3OC=C(C(=O)O)[C@H]4CC=C(C(=O)O)[C@@H]34)[C@H](O)[C@@H](O)[C@@H]2O)ccc1O?
A: Activity (PC-12 [1]): inactive; Activity (PC-12 [2]): inactive

Q: For COc1cc(/C=C/C(=O)OC[C@H]2O[C@@H](O[C@@H]3OC=C(C(=O)O)[C@H]4CC=C(C(=O)O)[C@@H]34)[C@H](O)[C@@H](O)[C@@H]2O)ccc1O, which Activity (PC-12 [1]) is on record?
A: inactive

Q: And the Activity (PC-12 [2])?
A: inactive

Q: O=C(O)C1=CC[C@@H]2C(C(=O)O)=CO[C@@H](O[C@@H]3O[C@H](CO)[C@@H](O)[C@H](O)[C@H]3O)[C@H]12 was tested. Which Activity (PC-12 [1]) did it give?
A: inactive

Q: And the Activity (PC-12 [2])?
A: inactive

Q: O=C(/C=C/c1ccccc1)OC[C@H]1O[C@@H](O[C@@H]2OC=C(C(=O)O)[C@H]3CC=C(C(=O)O)[C@@H]23)[C@H](O)[C@@H](O)[C@@H]1O was tested. Which Activity (PC-12 [1]) did it give?
A: inactive

Q: And the Activity (PC-12 [2])?
A: inactive
